Laboratory results: patent US20230192699A1, “COMPOUNDS AS CASEIN KINASE INHIBITORS” (GRITSCIENCE BIOPHARMACEUTICALS CO., LTD., priority 2020, published 2023)
pIC50: −log10 of the molar value.

Columns and labels:
MDA-MB-231 cells = assay: Cell proliferation assay (crystal violet); assay type: cell-based; conditions: various concentrations, 72 hours
Method: MDA-MB-231 cells treated with a compound of the present application (e.g., compound 1-1, 2-5, 1-14 and 3-8, respectively) were seeded at a density of 5×10^4cells/well in 12-well plate and incubated at 37° C. with 5% CO2. After 72 hours of culturing, the cells were washed with PBS, fixed in 4% formaldehyde for 15 minutes and stained with 0.1% crystal violet for 20 minutes. Cells were washed with water and the staining was extracted with 10% acetic acid for 20 minutes and absorbance was measured at 590 nm. The experiments were performed in triplicates.

[1] = test system: MDA-MB-231 cells (breast cancer cells); assay: Transwell cell migration assay; assay type: cell-based; conditions: MDA-MB-231, 24 h; for relative migration (%) of cells: FIG. 61; for migrated cells: FIGS. 62-67
Method: MDA-MB-231 cells (breast cancer cells) were starved in 0.5% serum-DMEM for 8 hours. For the migration assay, a total of 5×10^4cells were suspended in 500 μL of serum-free DMEM medium and seeded into the upper chamber of a […] pore size insert. Then, 750 μL of DMEM (containing 10% FBS) with or without the compound of the present application was added to the lower compartment. After incubation at 37° C. for 24 h, migrated cells were washed with PBS, fixed in 4% PFA and stained for 30 min in crystal violet solution (0.1% crystal violet). […] Each insert was photographed in 3 random fields at a magnification of 40×.

wild type CK1δ = wild type CK1δ (Homo sapiens, UniProt P48730); assay: CK1δ kinase assay (Kinase-Glo); assay type: biochemical; conditions: 10 μM ATP, 2 nM wild type CK1δ, 85 min at 25° C.; read-out: CK1δ inhibition (IC50)
Method: The CK1δ kinase assay was performed with a buffer (40 μL, pH 7.5) containing 50 mM Tris, 10 mM MgCl2, 1 mM dithiothreitol, 100 μg/mL BSA with 10 μM ATP, 2 nM wild type CK1δ, and 42 μM peptide substrate PLSRTLpSVASLPGL (Flotow et al., 1990) in the presence of 1 μL of a CK1δ inhibitor (e.g., a compound of the present application) or 4% DMSO (e.g., as control). The reaction mixture was incubated for 85 min at 25° C.; detection was carried out as described for the Kinase-Glo Assay (Promega). Luminescent output was measured on the Perkin Elmer Envision plate reader (PerkinElmer, Waltham, Mass.).

[2] = Assay of intrinsic clearance in liver microsomes (human); assay type: in vitro ADME; conditions: Human liver microsomes 0.5 mg/mL, 2 μM compound, 37° C.; for microsomal CLint at 2 μM: read-out: in vitro CLint (μL/min/mg protein); for half-life at 2 μM: read-out: in vitro t1/2
Method: (§1) 1. The master solution was prepared according to Table 11.
(§2) 2. Three separated experiments were performed as follows. a) With NADPH: 10 μL of 20 mg/mL liver microsomes and 40 μL of 10 mM NADPH were added to the incubations. The final concentrations of microsomes and NADPH were 0.5 mg/mL and 1 mM, respectively. b) Without NADPH: 10 μL of 20 mg/mL liver microsomes and 40 μL of ultra-pure H2O were added to the incubations. The final concentration of microsomes was 0.5 mg/mL. c) Heat-inactivated microsomes without NADPH: 10 μL of 20 mg/mL heat-inactivated liver microsomes and 40 μL of ultra-pure H2O were added to the incubations. The final concentration of microsomes was 0.5 mg/mL.
(§3) 3. The reaction was started with the addition of 4 μL of 200 μM test compound solution or control compound solution at the final concentration of 2 μM and carried out at 37° C.
(§4) 4. Aliquots of 50 μL were taken from the reaction solution at 0, 15, 30, 45 and 60 min. The reaction was stopped by the addition of 4 volumes of cold acetonitrile with IS (100 nM alprazolam, 200 nM labetalol, 200 nM caffeine and 2 μM ketoprofen). Samples were centrifuged at 3, 220 g for 40 minutes.
(§5) Peak areas were determined from extracted ion chromatograms. The slope value, k, was determined by linear regression of the natural logarithm of the remaining percentage of the parent drug vs. incubation time curve.
(§6) The in vitro half-life (in vitro t1/2) was determined from the slope value:
(§7) Conversion of the in vitro t1/2 (min) into the in vitro intrinsic clearance (in vitro CLint, in μL/min/mg protein) was done using the following equation (mean of duplicate determinations):
(§8) in vitro CLint=(0.693 * volume of incubation(μl))/(in vitro t1/2 * amount of proteins(mg))

[3] = Assay of intrinsic clearance in liver microsomes (mouse); assay type: in vitro ADME; conditions: Mouse liver microsomes 0.5 mg/mL, 2 μM compound, 37° C.; for microsomal CLint at 2 μM: read-out: in vitro CLint (μL/min/mg protein); for half-life at 2 μM: read-out: in vitro t1/2
Method: as §1, §2, §3, §4, §5, §6, §7, §8

in vitro = conditions: human, Caco-2, pH 7.4
Method: 1) 50 μL and 25 mL of cell culture medium were added to each well of the Transwell insert and reservoir, respectively. And then the HTS transwell plates were incubated at 37° C., 5% CO2 for 1 hour before cell seeding.
2) Caco-2 cells were diluted to 6. 86×10^5 cells/mL with culture medium and 50 μL of cell suspension were dispensed into the filter well of the 96-well HTS Transwell plate. Cells were cultivated for 14-18 days in a cell culture incubator at 37° C., 5% CO2, 95% relative humidity. Cell culture medium was replaced every other day, beginning no later than 24 hours after initial plating.
10 mM stock solutions of test compounds were prepared in DMSO. The stock solutions of positive controls were prepared in DMSO at the concentration of 10 mM. Digoxin and propranolol were used as control compounds in this assay.
1) Medium was removed from the reservoir and each Transwell insert and replaced with prewarmed fresh culture medium.
2) Transepithelial electrical resistance (TEER) across the monolayer was measured using Millicell Epithelial Volt-Ohm measuring system (Millipore, USA).
The TEER value was calculated according to the following equation: TEER measurement (ohms) * Area of membrane (cm^2)=TEER value (ohm·cm^2) TEER value should be greater than 230 ohm·cm^2, which indicates the well-qualified Caco-2 monolayer.
1) The Caco-2 plate was removed from the incubator and washed twice with pre-warmed HMS (10 mM HEPES, pH 7.4), and then incubated at 37° C. for 30 minutes.
2) The stock solutions of control compounds and test compounds were diluted in DMSO to get 1 mM solutions and then diluted with HMS (10 mM HEPES, pH 7.4) get 5 μM working solutions. The final concentration of DMSO in the incubation system was 0.5%.
3) To determine the rate of drug transport in the apical to basolateral direction. 125 μL of 5 μM working solution of control compound and test compounds were added to the Transwell insert (apical compartment), and transfer 50 μL sample (D0 sample) immediately from the apical compartment to a new 96-well plate. Fill the wells in the receiver plate (basolateral compartment) with 235 μL of MSS (10 mM HEPES, pH 7.4).
4) To determine the rate of drug transport in the basolateral to apical direction. 285 μL of 5 μM working solution of control compound and test compounds were to the receiver plate wells (basolateral compartment), and transfer 50 μL sample (D0 sample) immediately from the basolateral compartment to a new 96-well plate. Fill the wells in the Transwell insert (apical compartment) with 75 μL of MSS (10 mM HEPES, pH 7.4). The assay was performed in duplicate.
5) The plates were incubated at 37° C. for 2 hours.
6) At the end of the incubation, 50 μL samples from donor sides (apical compartment for Ap→Bl flux, and basolateral compartment for Bl→Ap) and receiver sides (basolateral compartment for Ap→Bl flux, and apical compartment for Bl→Ap) were transferred to wells of a new 96-well plate, followed by the addition of 4 volume of cold methanol containing appropriate internal standards (IS). Samples were Vortexed for 5 minutes and then centrifuged at 3,220 g for 40 minutes. An aliquot of 100 μL of the supernatant was mixed with an appropriate volume of ultra-pure water before LC-MS/MS analysis.
7) To determine the Lucifer Yellow leakage after 2-hour transport period, stock solution of Lucifer yellow was prepared in water and diluted with HMS (10 mM HEPES, pH 7.4) to reach the final concentration of 100 μM. 100 μL of the Lucifer yellow solution was added to each Transwell insert (apical compartment), followed by filling the wells in the receiver plate (basolateral compartment) with 300 μL of HBSS (10 mM HEPES, pH 7.4). The plates were Incubated at 37° C. for 30 mins. 80 μL samples were removed directly from the apical and basolateral wells (using the basolateral access holes) and transferred to wells of new 96 wells plates.

wild type CK1δ, sequence (P48730 whole entry): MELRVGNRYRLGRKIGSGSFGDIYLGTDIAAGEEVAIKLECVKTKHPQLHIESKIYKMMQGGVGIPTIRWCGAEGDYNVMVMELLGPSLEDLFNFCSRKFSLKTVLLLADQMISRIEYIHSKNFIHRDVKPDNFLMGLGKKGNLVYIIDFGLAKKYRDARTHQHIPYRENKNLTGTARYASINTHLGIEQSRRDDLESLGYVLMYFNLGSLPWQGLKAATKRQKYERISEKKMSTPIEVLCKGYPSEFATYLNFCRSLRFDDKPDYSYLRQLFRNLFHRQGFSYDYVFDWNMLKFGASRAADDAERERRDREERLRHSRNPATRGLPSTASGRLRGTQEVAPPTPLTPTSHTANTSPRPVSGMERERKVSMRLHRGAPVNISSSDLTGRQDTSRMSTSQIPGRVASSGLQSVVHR

pIC50 (wild type CK1δ)	microsomal CLint at 2 μM [2]	half-life at 2 μM [2]	microsomal CLint at 2 μM [3]	half-life at 2 μM [3]	efflux ratio at 2 h, 5 μM (in vitro)	SMILES	also measured
						Nc1nccc(-c2c(-c3ccc(F)cc3)nc3cnccn23)n1 [Compound 1-1, 4-(2-(4-fluorophenyl)imidazo[1,2-a]pyrazin-3-yl)pyrimidin-2-amine]	relative proliferation (%) of cells (MDA-MB-231 cells): affected in a concentration dependent manner; relative migration (%) of cells [1]: reduced; migrated cells [1]: suppressed the migration
6.56	60.1 µL/min/mg	23.1 min	44.9 µL/min/mg	30.9 min		C[C@@H]1Cn2nc(-c3ccc(F)cc3)c(-c3ccncc3)c2CO1 [Compound 1-46, (R)-2-(4-fluorophenyl)-6-methyl-3-(pyridin-4-yl)-6,7-dihydro-4H-pyrazolo[5,1-c][1,4]oxazine]	
6.50	49.5 µL/min/mg	28 min	104 µL/min/mg	13.3 min		Nc1cc(-c2c(-c3ccc(F)cc3)nn3c2COCC3)ccn1 [Compound 1-49, 4-(2-(4-fluorophenyl)-6,7-dihydro-4H-pyrazolo[5,1-c][1,4]oxazin-3-yl)pyridin-2-amine]	
6.45					3.6	CC(=O)N1CCn2nc(-c3ccc(F)cc3)c(-c3ccnc(N)c3)c2C1 [Compound 1-50, 1-(3-(2-aminopyridin-4-yl)-2-(4-fluorophenyl)-6,7-dihydropyrazolo[1,5-a]pyrazin-5(4H)-yl)ethan-1-one]	Papp A→B at 2 h, 5 μM (in vitro): 8.5 ×10⁻⁶ cm/s; Papp B→A at 2 h, 5 μM (in vitro): 30.8 ×10⁻⁶ cm/s
6.88	104 µL/min/mg	13.4 min	285 µL/min/mg	4.86 min	0.9	Nc1cc(-c2c(-c3ccc(F)cc3)nn3c2CCC3)ccn1 [Compound 1-57, 4-(2-(4-fluorophenyl)-5,6-dihydro-4H-pyrrolo[1,2-b]pyrazol-3-yl)pyridin-2-amine]	Papp A→B at 2 h, 5 μM (in vitro): 19.2 ×10⁻⁶ cm/s; Papp B→A at 2 h, 5 μM (in vitro): 17.3 ×10⁻⁶ cm/s
7.40	9.7 µL/min/mg	143 min	22.2 µL/min/mg	62.3 min	1.05	CN1CCn2nc(-c3ccc(F)cc3)c(-c3ccnc(N)c3)c2C1 [Compound 1-59, 4-(2-(4-fluorophenyl)-5-methyl-4,5,6,7-tetrahydropyrazolo[1,5-a]pyrazin-3-yl)pyridin-2-amine]	Papp A→B at 2 h, 5 μM (in vitro): 22.8 ×10⁻⁶ cm/s; Papp B→A at 2 h, 5 μM (in vitro): 23.9 ×10⁻⁶ cm/s
6.67						Cc1cn(-c2ccncc2)c(-c2ccc(F)cc2)c1C#N [Compound 2-2, 2-(4-fluorophenyl)-4-methyl-1-(pyridin-4-yl)-1H-pyrrole-3-carbonitrile]	relative migration (%) of cells [1]: reduced; migrated cells [1]: suppressed the migration
5.15						Fc1ccc(-c2nn[nH]c2-c2ccncc2)cc1 [Compound 3-7, 4-(4-(4-fluorophenyl)-1H-1,2,3-triazol-5-yl)pyridine]	relative migration (%) of cells [1]: reduced; migrated cells [1]: suppressed the migration
4.01						COc1ccc(Cn2nnc(-c3ccc(F)cc3)c2-c2ccncc2)cc1 [Compound 3-8, 4-(4-(4-fluorophenyl)-1-(4-methoxybenzyl)-1H-1,2,3-triazol-5-yl)pyridine]	relative proliferation (%) of cells (MDA-MB-231 cells): affected in a concentration dependent manner
6.77	7.93 µL/min/mg	175 min	25.2 µL/min/mg	55 min		Cn1cc(-c2ccnc3[nH]ncc23)c(-c2ccc(F)cc2)c1C#N [Compound 5-2, 3-(4-fluorophenyl)-1-methyl-4-(1H-pyrazolo[3,4-b]pyridin-4-yl)-1H-pyrrole-2-carbonitrile]	
7.03						Cc1cc(-c2ccnc3c2C(=O)OC3)n(-c2ccc(F)cc2)n1 [Compound 6-1, 4-(1-(4-fluorophenyl)-3-methyl-1H-pyrazol-5-yl)furo[3,4-b]pyridin-5(7H)-one]	
					56.5	C[C@H]1O[C@@H](O[C@H]2[C@@H](O)C[C@H](O[C@H]3[C@@H](O)C[C@H](O[C@H]4CC[C@@]5(C)[C@H](CC[C@@H]6[C@@H]5C[C@@H](O)[C@]5(C)[C@@H](C7=CC(=O)OC7)CC[C@]65O)C4)O[C@@H]3C)O[C@@H]2C)C[C@H](O)[C@@H]1O [Digoxin, reference compound]	
					0.51	CC(C)NCC(O)COc1cccc2ccccc12 (stereo not shown) [Propranolol, reference compound]	
